Data taken from patent publication US20230000840A1, “THERAPEUTIC AGENTS AND PROPHYLACTIC AGENTS FOR FUNCTIONAL GASTROINTESTINAL DISORDERS AND XEROSTOMIA” (NIPPON SHINYAKU CO., LTD., priority 2019, published 2023).

What was measured:
anesthetized mice = assay: Measurement of secreted saliva amount in anesthetized mice; format: in vivo, mouse; details: for Amount of saliva secreted: urethane-anesthetized male ICR mice, 10 mg/kg intravenous, cotton balls weighed after 30 minutes, average ± standard error
Procedure: 8-week-aged male ICR mice (Japan SLC, Inc.) were anesthetized with urethane (1650 mg/kg, intraperitoneal administration). After about 1 hour, a test compound or a vehicle (physiological saline containing 10% DMSO (OTSUKA NORMAL SALINE, manufactured by Otsuka Pharmaceutical Factory, Inc.)) was intravenously administered at 10 mg/kg, and immediately after that, one or two absorbent cotton wool balls ([…]) (Roller Cotton (cotton ball) SS, manufactured by Nichiei Co., Ltd.) were inserted into the mouth. The difference between the weight of the absorbent cotton balls after 30 minutes from insertion and the weight of the absorbent cotton balls before insertion was defined as an amount of saliva secreted. At this time, the test compound was dissolved in DMSO and then diluted 10-fold with physiological saline. The administration volumes of the test compound and the vehicle were each set to 5 mL/kg. The experiment was carried out in three parts. The number of cases in each administration group was 3-4.

ileum = assay: Magnus test: carbachol-induced contraction of isolated rat ileum; details: test compound 10 μM, then carbachol 50 nM, 100% = carbachol 1000 nM, 0% = DMSO + carbachol 50 nM, average ± standard error, read-out: Enhancement ratio P of the contraction force
Procedure: 9- to 15-week-aged SD female rats (Japan SLC, Inc.) were exsanguinated to death by amputation of carotid artery under isoflurane anesthesia. Then, the ileum was removed from each rat, and cut to a length of 2 cm while excising the mesentery and connective tissue, to prepare an intestinal sample. In a Magnus tank, this sample was immersed and suspended in 20 mL of a Krebs solution at 37° C. (118 mM NaCl, 4.7 mM KCl, 2.5 mM CaCl2, 1.2 mM MgSO4, 1.2 mM KH2PO4, 11 mM D-glucose, 20 mM NaHCO3) aerated with a mixed gas of 95% O2 and 5% CO2. Then, a load of 1 g was applied to the sample to stabilize the tension.
One end of the sample was connected to an isotonic transducer (IT-10, Medical Agent), and tension (contraction force) data was imported to a personal computer via Power Lab (registered trademark) (A&D Instruments Limited). Carbachol (Carbamylcholine Chloride, Cat. No. 036-09841, manufactured by FUJIFILM Wako Pure Chemical Industries, Ltd.) was added to the Krebs solution in the Magnus tank such that the final concentration thereof was 1000 nM, and contraction of the sample was checked. A contraction force Tb of the sample at this time was defined as 100%. Then, the Magnus tank was washed with a Krebs solution three times to wash away carbachol, and the Magnus tank was finally filled with 20 mL of a Krebs solution.
Next, dimethyl sulfoxide (DMSO, Cat. No. 13445-74, manufactured by NACALAI TESQUE, INC.) was added to the Krebs solution in the Magnus tank, then carbachol was added to the Krebs solution in the Magnus tank such that the final concentration thereof was 50 nM, and contraction of the sample was checked. A contraction force Ta of the sample at this time was defined as 0%. Then, the Magnus tank was washed with a Krebs solution three times to wash away carbachol and DMSO, and the Magnus tank was finally filled with 20 mL of a Krebs solution. Next, a test compound dissolved in DMSO was added to the Krebs solution in the Magnus tank such that the final concentration thereof was 10 μM, then carbachol was added to the Krebs solution in the Magnus tank such that the final concentration thereof was 50 nM, and contraction of the sample was checked.
As described above, the contraction force Tb of the sample when carbachol was added at a final concentration of 1000 nM was defined as 100%, and the contraction force Ta of the sample when carbachol was added at a final concentration of 50 nM under the condition that DMSO was added first instead of the test compound was defined as 0%. The contraction force of the sample when carbachol was added at a final concentration of 50 nM under the condition that the test compound was added first at a final concentration of 10 μM was denoted by Tc, and an enhancement ratio P (unit: %) of the contraction force by the test compound was calculated according to the following equation (2). The increase in contraction force by the test compound was evaluated on the basis of the enhancement ratio P. The number of cases in each addition group was 3 to 7.
P=100×(Tc−Ta)/(Tb−Ta) (2)

Row | SMILES | Amount of saliva secreted (anesthetized mice) [mg] | activation at 10 µM (ileum) [%] | Salivation promoting effect (anesthetized mice; urethane-anesthetized mice, dose not given)
1 | CCOc1cc(-c2cc(N(C)CC3(COC)CCC3)c3[nH]c(-c4cnc(N5CCC(C(=O)O)CC5)cn4)nc3n2)cc(C(F)(F)F)n1.Cl.Cl [Example 4, 1-(5-{5-[2-Ethoxy-6-(trifluoromethyl)pyridin-4-yl]-7-[{[1-(methoxymethyl)cyclobutyl]methyl}(methyl)amino]-1H-imidazo[4,5-b]pyridin-2-yl}pyrazin-2-yl)piperidine-4-carboxylic acid dihydrochloride] | 77.35 ± 16.66 | 59.3 ± 7.17 | 
2 | COCC1(CN(C)c2cc(-c3cnc(C4CC4)c(C(F)(F)F)c3)nc3nc(-c4cnc(N5CCN(CCC(=O)[O-])C[C@H]5C)cn4)[nH]c23)CCCC1.[Na+] [Example 15, Sodium 3-[(3R)-4-(5-{5-[6-cyclopropyl-5-(trifluoromethyl)pyridin-3-yl]-7-[{[1-(methoxymethyl)cyclopentyl]methyl}(methyl)amino]-1H-imidazo[4,5-b]pyridin-2-yl}pyrazin-2-yl)-3-methylpiperazin-1-yl]propanoate] | 304.98 ± 58.25 | 79.3 ± 12.2 | 
3 | COCC1(CN(C)c2cc(-c3cc(F)cc(C(F)(F)F)c3)nc3nc(-c4cnc(N5CCC(F)(C(=O)O)CC5)cn4)[nH]c23)CCC1 [Example 2, 4-Fluoro-1-(5-{5-[3-fluoro-5-(trifluoromethyl)phenyl]-7-[{[1-(methoxymethyl)cyclobutyl]methyl}(methyl)amino]-1H-imidazo[4,5-b]pyridin-2-yl}pyrazin-2-yl)piperidine-4-carboxylic acid] | 9.73 ± 3.61 | 61.5 ± 8 | 
4 | COCC1(CN(C)c2cc(-c3cc(F)cc(C(F)(F)F)c3)nc3nc(-c4cnc(N5CCN(CC(=O)O)CC5)cn4)[nH]c23)CCC1 [Example 1, [4-(5-{5-[3-Fluoro-5-(trifluoromethyl)phenyl]-7-[{[1-(methoxymethyl)cyclobutyl]methyl}(methyl)amino]-1H-imidazo[4,5-b]pyridin-2-yl}pyrazin-2-yl)piperazin-1-yl]acetic acid] | 9.63 ± 2.90 | 30.4 ± 8.34 | 
5 | COCC1(CN(C)c2cc(-c3cnc(C4CC4)c(C(F)(F)F)c3)nc3nc(-c4cnc(N5CCN(CCC(=O)O)CC5)cn4)[nH]c23)CCCCC1 [Example 10] | 329.83 ± 49.36 | 19.3 ± 5.52 | 
6 | CCOCC1(CN(C)c2cc(-c3cnc(C4CC4)c(C(F)(F)F)c3)nc3nc(-c4cnc(N5CCC(C(=O)O)CC5)cn4)[nH]c23)CCCC1 [Example 8, 1-(5-{5-[6-Cyclopropyl-5-(trifluoromethyl)pyridin-3-yl]-7-[{[1-(ethoxymethyl)cyclopentyl]methyl}(methyl)amino]-1H-imidazo[4,5-b]pyridin-2-yl}pyrazin-2-yl)piperidine-4-carboxylic acid] | 49.13 ± 11.95 | 12.4 ± 5.31 | 
7 | CCOc1cc(-c2cc(N(C)CC(C)(C)COC)c3[nH]c(-c4cnc(N5CCC(C(=O)O)CC5)cn4)nc3n2)cc(C(F)(F)F)n1 [Example 7, 1-(5-{5-[2-Ethoxy-6-(trifluoromethyl)pyridin-4-yl]-7-[(3-methoxy-2,2-dimethylpropyl)(methyl)amino]-1H-imidazo[4,5-b]pyridin-2-yl}pyrazin-2-yl)piperidine-4-carboxylic acid] | 73.40 ± 28.54 | 25.8 ± 6.38 | 
8 | COCC1(CN(C)c2cc(-c3cnc(C4CC4)c(C(F)(F)F)c3)nc3nc(-c4ccc(OC5CCN(CC(=O)O)CC5)cc4F)[nH]c23)CCCC1 [Example 11, [4-(4-{5-[6-Cyclopropyl-5-(trifluoromethyl)pyridin-3-yl]-7-[{[1-(methoxymethyl)cyclopentyl]methyl}(methyl)amino]-1H-imidazo[4,5-b]pyridin-2-yl}-3-fluorophenoxy)piperidin-1-yl]acetic acid] | 51.85 ± 7.37 | 30.1 ± 3.79 | 
9 | COC[C@@H]1CN(c2cnc(-c3nc4nc(-c5cnc(C6CC6)c(C(F)(F)F)c5)cc(N(C)CC5(COC)CCCCC5)c4[nH]3)cn2)CCN1CCC(=O)O [Example 12, 3-[(2S)-4-(5-{5-[6-Cyclopropyl-5-(trifluoromethyl)pyridin-3-yl]-7-[{[1-(methoxymethyl)cyclohexyl]methyl}(methyl)amino]-1H-imidazo[4,5-b]pyridin-2-yl}pyrazin-2-yl)-2-(methoxymethyl)piperazin-1-yl]propanoic acid] | 131.75 ± 28.63 | 49.3 ± 11 | 
10 | CCOc1cc(-c2cc(N(C)CC3(COC)CCCC3)c3[nH]c(-c4cnc(N5CCC(C(=O)O)CC5)cn4)nc3n2)cc(C(F)(F)F)n1 [Example 9, 1-(5-{5-[2-Ethoxy-6-(trifluoromethyl)pyridin-4-yl]-7-[{[1-(methoxymethyl)cyclopentyl]methyl}(methyl)amino]-1H-imidazo[4,5-b]pyridin-2-yl}pyrazin-2-yl)piperidine-4-carboxylic acid] | 34.73 ± 11.39 | 36.9 ± 6.43 | 
11 | COCC1(CN(C)c2cc(-c3cc(C4CC4)nc(C(F)(F)F)c3)nc3nc(-c4cnc(N5CCC(OCC(=O)O)CC5)cn4)[nH]c23)CCCC1 [Example 5, {[1-(5-{5-[2-Cyclopropyl-6-(trifluoromethyl)pyridin-4-yl]-7-[{[1-(methoxymethyl)cyclopentyl]methyl}(methyl)amino]-1H-imidazo[4,5-b]pyridin-2-yl}pyrazin-2-yl)piperidin-4-yl]oxy}acetic acid] | 66.30 ± 15.32 | 33.5 ± 3.39 | 
12 | CCOCC1(CN(C)c2cc(-c3cnc(C4CC4)c(C(F)(F)F)c3)nc3nc(-c4cnc(N5CCN(CCC(=O)[O-])C[C@H]5C)cn4)[nH]c23)CCCC1.[Na+] [Example 13, sodium 3-[(3R)-4-(5-{5-[6-cyclopropyl-5-(trifluoromethyl)pyridin-3-yl]-7-[{[1-(ethoxymethyl)cyclopentyl]methyl}(methyl)amino]-1H-imidazo [4,5-b]pyridin-2-yl}pyrazin-2-yl)-3-methylpiperazin-1-yl]propanoate] | 214.40 ± 51.06 | 17.7 ± 12.7 | 
13 | CCOc1ncc(-c2cc(N(C)CC3(COC)CCCC3)c3[nH]c(-c4ccc(N5CCC(C(=O)O)CC5)cc4F)nc3n2)cc1C(F)(F)F [Example 6, 1-(4-{5-[6-Ethoxy-5-(trifluoromethyl)pyridin-3-yl]-7-[{[1-(methoxymethyl)cyclopentyl]methyl}(methyl)amino]-1H-imidazo[4,5-b]pyridin-2-yl}-3-fluorophenyl)piperidine-4-carboxylic acid] | 11.37 ± 2.87 | 26.7 ± 5.04 | 
14 | COCC1(CN(C)c2cc(-c3cc(C4CC4)nc(C(F)(F)F)c3)nc3nc(-c4cnc(N5CCN(CCC(=O)[O-])C[C@H]5C)cn4)[nH]c23)CCCCC1.[Na+] [Example 14, Sodium 3-[(3R)-4-(5-{5-[2-cyclopropyl-6-(trifluoromethyl)pyridin-4-yl]-7-[{[1-(methoxymethyl)cyclohexyl]methyl}(methyl)amino]-1H-imidazo[4,5-b]pyridin-2-yl}pyrazin-2-yl)-3-methylpiperazin-1-yl]propanoate] | 142.70 ± 23.51 | 65.1 ± 15 | 
15 | CC[C@@H]1C(=O)OC[C@@H]1Cc1cncn1C [pilocarpine, reference compound] |  |  | exhibited a salivation promoting effect
